These results are taken from US12344618B2, “Heterotricyclic derivative compound and use of same” (HANMI PHARMACEUTICAL CO., LTD., priority 2019, dated 2025).

For orientation: IC50 means the concentration needed to halve the response being measured. Read a low IC50 as inhibition by little substance. Usually GI50 stands for the concentration giving 50% growth inhibition.

Each structure is given as a SMILES string. Like-named read-outs stand apart in the source and are kept apart here.

One data set has as its target EZH2 (Homo sapiens, UniProt Q15910). Nature of the data set: Inhibitory activity against EZH2 methyltransferase (radiometric scintillation proximity assay).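 Further: Read-out is substrate peptide methylation, captured on streptavidin-coated SPA beads and counted by scintillation, with the reaction run in Tris-HCl buffer at pH 8.0 containing 1% DMSO.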 Particulars: Enzyme inhibitory activity (IC50, nM) EZH2, 2.3 nmol/L enzyme, 90 minutes, room temperature.
In data set [1] the test system is KARPAS-422 (EZH2 Y641N mutation). Nature of the data set: Cell growth inhibition test, KARPAS-422. It counts as cell-based. Particulars: KARPAS-422, culture time 7 days, read-out: Cell growth inhibitory activity (GI50, nM) KARPAS-422 (EZH2 Y641N mutation). The protocol: Each type of the cultured cells was seeded in 6-well plates or 48-96 well plates, and subculture or medium replacement was performed every 3 to 4 days. Next, the cells were subcultured for a total of 7 to 14 days, and then seeded in 96-well plates. 3 to 5 days before the measurement of the effect, the cells were seeded in 96-well plates, and then the absorbance (Tz) on the day of seeding was measured. The absorbance after the reaction was measured by the plate reader device Synergy NeoAlpha (Biotek) using Cell-Titer-Glo Cell Viability Assay (Promega, G7573) according to the attached manual. Based on the absorbance (Tz) measured on the seeding day and the absorbance of each of the DMSO-treated group (C) and the sample-added group (Ti) measured on the day of effect determination, the percentage of cell proliferation inhibition was calculated according to the following Equation 1. [(Ti−Tz)/(C−Tz)]×100 for concentrations for which Ti≥Tz […] for concentrations for which Ti<Tz. [Equation 1]

A short description of data set [2]: Metabolic stability in mouse liver microsomes. It counts as in vitro ADME. Particulars: 5 μM compound, 1 mg/mL mouse liver microsomes, 37° C., NADPH regenerating system. The method, then: (§1) In order to confirm the metabolic stability of the synthetic compounds in the liver, 5 μM test compound and 1 mg/mL human, dog, rat or mouse liver microsomes were allowed to react with each other at 37° C. in the presence of the NADPH regenerating system for 1 hour. After 1 hour, the reaction was terminated and the supernatant obtained by centrifugation was analyzed by HPLC. With the peak value obtained as the analysis result, the residual amount (%) was calculated using the following equation through the peak value of the test compound after 1 hour of the reaction versus the peak value of the test compound at 0 min. Residual amount (%)=(peak value of test compound after 1 hour of reaction/peak value of test compound at 0 min)×100
Background: Liver microsomes are a subcellular fraction often used to study metabolism.

A further data set addresses T1, EZH1 (Homo sapiens, UniProt Q92800).
T1 construct: purchased Reaction Biology Corp. (contract assay)
Put plainly: Inhibitory activity against EZH1 methyltransferase (radiometric scintillation proximity assay).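 Further: Read-out is methylation of a substrate peptide, captured on streptavidin-coated SPA beads and counted by scintillation, in Tris-HCl buffer at pH 8.0 with 1% DMSO.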 It counts as biochemical. Particulars: 2.3 nmol/L enzyme, 90 minutes, room temperature.

The nature of data set [3]: Metabolic stability in human liver microsomes. It counts as in vitro ADME. To be noted: 5 μM compound, 1 mg/mL human liver microsomes, 37° C., NADPH regenerating system. The protocol:
as §1

Setting [4] is: Homo sapiens, KARPAS-422, 168 h.

T1 sequence (Q92800 whole entry): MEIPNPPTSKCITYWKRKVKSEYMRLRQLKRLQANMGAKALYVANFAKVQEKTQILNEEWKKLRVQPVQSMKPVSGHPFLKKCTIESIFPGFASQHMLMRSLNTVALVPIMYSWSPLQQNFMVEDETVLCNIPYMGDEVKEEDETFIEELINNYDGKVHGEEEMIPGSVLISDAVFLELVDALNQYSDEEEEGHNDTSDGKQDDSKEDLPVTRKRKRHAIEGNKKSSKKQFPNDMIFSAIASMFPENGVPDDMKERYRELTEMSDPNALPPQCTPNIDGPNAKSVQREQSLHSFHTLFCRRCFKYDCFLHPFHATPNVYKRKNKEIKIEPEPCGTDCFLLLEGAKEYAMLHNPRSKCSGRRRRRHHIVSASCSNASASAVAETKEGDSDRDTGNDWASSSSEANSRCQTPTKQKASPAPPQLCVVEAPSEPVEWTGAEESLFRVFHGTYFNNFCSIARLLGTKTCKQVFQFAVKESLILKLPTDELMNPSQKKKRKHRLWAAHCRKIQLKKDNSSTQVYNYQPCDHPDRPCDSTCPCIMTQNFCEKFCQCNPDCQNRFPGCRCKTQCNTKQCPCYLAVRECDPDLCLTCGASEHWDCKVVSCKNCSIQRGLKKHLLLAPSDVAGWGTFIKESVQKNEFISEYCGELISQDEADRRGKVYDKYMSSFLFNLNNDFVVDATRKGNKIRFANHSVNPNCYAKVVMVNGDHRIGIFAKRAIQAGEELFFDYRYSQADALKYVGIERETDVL
T1 sequence (O75530 whole entry partner): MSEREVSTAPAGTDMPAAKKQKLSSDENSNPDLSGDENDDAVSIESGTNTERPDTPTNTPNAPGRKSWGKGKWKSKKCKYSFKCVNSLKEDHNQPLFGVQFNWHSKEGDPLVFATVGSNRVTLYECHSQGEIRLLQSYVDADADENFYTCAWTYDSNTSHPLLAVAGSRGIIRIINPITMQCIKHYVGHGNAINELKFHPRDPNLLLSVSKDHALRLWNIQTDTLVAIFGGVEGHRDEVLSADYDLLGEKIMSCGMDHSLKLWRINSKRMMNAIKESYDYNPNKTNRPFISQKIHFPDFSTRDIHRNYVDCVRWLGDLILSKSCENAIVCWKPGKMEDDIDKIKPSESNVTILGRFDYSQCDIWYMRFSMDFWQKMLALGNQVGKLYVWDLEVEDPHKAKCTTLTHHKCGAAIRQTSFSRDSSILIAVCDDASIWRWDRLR
T1 sequence (Q15022 whole entry partner): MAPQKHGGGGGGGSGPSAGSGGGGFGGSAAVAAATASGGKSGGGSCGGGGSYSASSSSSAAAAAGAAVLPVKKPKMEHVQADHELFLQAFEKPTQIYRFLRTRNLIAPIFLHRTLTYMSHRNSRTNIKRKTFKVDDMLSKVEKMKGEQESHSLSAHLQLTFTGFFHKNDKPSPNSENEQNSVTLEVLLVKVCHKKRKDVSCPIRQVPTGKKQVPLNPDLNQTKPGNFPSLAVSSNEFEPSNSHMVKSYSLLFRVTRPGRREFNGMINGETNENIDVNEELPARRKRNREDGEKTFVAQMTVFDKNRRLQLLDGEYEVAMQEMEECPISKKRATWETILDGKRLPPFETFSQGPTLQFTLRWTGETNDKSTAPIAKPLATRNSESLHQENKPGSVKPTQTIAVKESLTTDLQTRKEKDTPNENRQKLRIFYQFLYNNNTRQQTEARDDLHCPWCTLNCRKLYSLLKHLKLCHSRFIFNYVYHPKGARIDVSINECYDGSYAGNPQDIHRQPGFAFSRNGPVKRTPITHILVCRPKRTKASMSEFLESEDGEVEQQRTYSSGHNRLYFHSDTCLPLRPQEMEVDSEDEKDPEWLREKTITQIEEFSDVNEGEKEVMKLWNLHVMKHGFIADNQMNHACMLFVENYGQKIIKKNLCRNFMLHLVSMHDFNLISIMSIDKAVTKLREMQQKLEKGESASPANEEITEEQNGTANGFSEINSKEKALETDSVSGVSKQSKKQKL
T1 sequence (Q09028 whole entry partner): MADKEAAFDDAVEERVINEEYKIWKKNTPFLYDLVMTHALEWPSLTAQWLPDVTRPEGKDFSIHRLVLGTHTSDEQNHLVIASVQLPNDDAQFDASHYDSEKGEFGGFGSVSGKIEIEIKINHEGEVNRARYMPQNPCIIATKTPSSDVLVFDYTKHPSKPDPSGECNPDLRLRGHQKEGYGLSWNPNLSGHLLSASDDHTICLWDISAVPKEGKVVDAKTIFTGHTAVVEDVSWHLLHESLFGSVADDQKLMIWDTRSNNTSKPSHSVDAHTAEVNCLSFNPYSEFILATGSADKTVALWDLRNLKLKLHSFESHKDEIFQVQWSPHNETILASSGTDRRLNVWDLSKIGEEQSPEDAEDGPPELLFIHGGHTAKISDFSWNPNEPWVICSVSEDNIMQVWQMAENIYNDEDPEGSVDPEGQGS
T1 sequence (Q6ZN18 whole entry partner): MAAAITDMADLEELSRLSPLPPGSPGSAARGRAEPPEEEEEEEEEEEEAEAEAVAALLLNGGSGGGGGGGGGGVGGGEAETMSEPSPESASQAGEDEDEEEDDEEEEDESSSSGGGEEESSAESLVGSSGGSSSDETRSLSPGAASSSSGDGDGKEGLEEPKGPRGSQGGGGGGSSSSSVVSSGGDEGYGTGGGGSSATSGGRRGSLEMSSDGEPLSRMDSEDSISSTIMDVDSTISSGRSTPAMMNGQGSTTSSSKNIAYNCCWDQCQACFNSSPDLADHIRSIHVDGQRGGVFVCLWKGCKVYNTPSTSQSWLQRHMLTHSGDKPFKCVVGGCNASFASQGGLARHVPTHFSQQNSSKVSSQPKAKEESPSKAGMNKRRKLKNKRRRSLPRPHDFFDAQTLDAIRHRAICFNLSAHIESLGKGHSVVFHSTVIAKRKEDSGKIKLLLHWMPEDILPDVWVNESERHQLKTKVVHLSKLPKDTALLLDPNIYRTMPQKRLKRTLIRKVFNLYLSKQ
Sequence of EZH2 (Q15910 whole entry): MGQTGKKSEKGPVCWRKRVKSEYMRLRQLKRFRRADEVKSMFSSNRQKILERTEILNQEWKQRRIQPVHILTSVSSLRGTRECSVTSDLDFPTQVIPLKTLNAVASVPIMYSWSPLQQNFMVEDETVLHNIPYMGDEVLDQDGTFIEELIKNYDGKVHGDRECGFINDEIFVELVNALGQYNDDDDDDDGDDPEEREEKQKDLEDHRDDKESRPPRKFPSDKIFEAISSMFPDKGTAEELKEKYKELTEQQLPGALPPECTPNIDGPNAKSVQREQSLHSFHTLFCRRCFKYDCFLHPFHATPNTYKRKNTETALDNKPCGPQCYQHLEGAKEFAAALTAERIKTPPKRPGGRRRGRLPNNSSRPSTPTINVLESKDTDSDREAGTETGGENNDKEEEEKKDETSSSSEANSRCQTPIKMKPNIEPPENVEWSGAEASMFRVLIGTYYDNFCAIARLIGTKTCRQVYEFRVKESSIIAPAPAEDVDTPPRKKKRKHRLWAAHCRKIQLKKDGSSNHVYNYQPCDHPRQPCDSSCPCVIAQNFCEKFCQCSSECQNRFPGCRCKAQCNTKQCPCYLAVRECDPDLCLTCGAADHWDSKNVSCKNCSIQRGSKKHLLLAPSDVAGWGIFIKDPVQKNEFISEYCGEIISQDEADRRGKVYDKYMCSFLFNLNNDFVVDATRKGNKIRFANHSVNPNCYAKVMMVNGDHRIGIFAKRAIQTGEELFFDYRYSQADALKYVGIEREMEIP
Sequence of EZH2 (O75530 whole entry partner): as the sequence (O75530 whole entry partner) above
Sequence of EZH2 (Q15022 whole entry partner): as the sequence (Q15022 whole entry partner) above
Sequence of EZH2 (Q09028 whole entry partner): as the sequence (Q09028 whole entry partner) above
Sequence of EZH2 (Q6ZN18 whole entry partner): as the sequence (Q6ZN18 whole entry partner) above

`Cc1cc(C)c(CN2CCc3c(C)c4c(c(Cl)c3C2=O)OC(C)([C@H]2CC[C@H](N(C)C)CC2)O4)c(=O)[nH]1` (single isomer, unassigned) [Compound 5, 4-chloro-6-((4,6-dimethyl-2-oxo-1,2-dihydropyridin-3-yl)methyl)-2-(trans-4-(dimethylamino)cyclohexyl)-2,9-dimethyl-7,8-dihydro-[1,3]dioxolo[4,5-g]isoquinolin-5(6H)-one]: the half-inhibitory concentration (IC50) against EZH2 was 1.3 nM; at EZH1, 16 nM. The GI50 in data set [1] worked out at 2.4 nM. In addition, the “Residual amount (%) of test compound after 1 hour of reaction, Mouse” value (from here on “Residual amount (%) of test compound … Mouse”) in data set [2] is given as 78%. Also, in data set [3], the “Residual amount (%) of test compound after 1 hour of reaction, Human” value (“Residual amount (%) of test compound … Human” below) is 89%.
Turning to `Cc1cc(C)c(CN2CCc3c(Cl)c4c(c(C)c3C2=O)OC(C)([C@H]2CC[C@H](N(C)C)CC2)O4)c(=O)[nH]1` (single isomer, unassigned) [Compound 11, 9-chloro-6-((4,6-dimethyl-2-oxo-1,2-dihydropyridin-3-yl)methyl)-2-(trans-4-(dimethylamino)cyclohexyl)-2,4-dimethyl-7,8-dihydro-[1,3]dioxolo[4,5-g]isoquinolin-5(6H)-one], the IC50 at EZH2 is 116 to 473 nM; on EZH1, over 1000 nM. Besides, in data set [1], the GI50 is at least 563 nM. Moreover, the “Residual amount (%) of test compound … Mouse” value in data set [2] was 70%. The “Residual amount (%) of test compound … Human” value in data set [3] worked out at 37%.
`Cc1cc(C)c(CN2CCc3c(C)c4c(c(C)c3C2=O)OC(C)([C@H]2CC[C@H](N(C)C)CC2)O4)c(=O)[nH]1` (single isomer, unassigned) [Compound 41, 6-((4,6-dimethyl-2-oxo-1,2-dihydropyridin-3-yl)methyl)-2-(trans-4-(dimethylamino)cyclohexyl)-2,4,9-trimethyl-7,8-dihydro-[1,3]dioxolo[4,5-g]isoquinolin-5(6H)-one]: the IC50 against EZH2 was 69 nM; on EZH1, over 1000 nM. Moreover, the GI50 in data set [1] came to 69 nM. For the same compound, the “Residual amount (%) of test compound … Mouse” value in data set [2] is 63%. The “Residual amount (%) of test compound … Human” value in data set [3] worked out at 53%.
For the compound `Cc1cc(C)c(CN2CCc3c(Cl)c4c(c(C)c3C2=O)OC(C)(C2CCOCC2)O4)c(=O)[nH]1` (stereo not shown) [Compound 24, 9-chloro-6-((4,6-dimethyl-2-oxo-1,2-dihydropyridin-3-yl)methyl)-2,4-dimethyl-2-(tetrahydro-2H-pyran-4-yl)-7,8-dihydro-[1,3]dioxolo[4,5-g]isoquinolin-5(6H)-one], the values for the IC50 against EZH2 and on EZH1 were 3 nM and 34 nM, respectively. For the same compound, the GI50 in data set [1] (setting [4]) was 62 nM.
For the compound `Cc1cc(C)c(CN2CCc3c(Cl)c4c(c(C)c3C2=O)OC(C)(CCCCN(C)C)O4)c(=O)[nH]1` (stereo not shown) [Compound 26, 9-chloro-6-((4,6-dimethyl-2-oxo-1,2-dihydropyridin-3-yl)methyl)-2-(4-(dimethylamino)butyl)-2,4-dimethyl-7,8-dihydro-[1,3]dioxolo[4,5-g]isoquinolin-5(6H)-one], the IC50 is 6.2 nM on EZH2 and 85 nM at EZH1. In data set [1] (setting [4]), the GI50 came to 99 nM.
In the case of `Cc1cc(C)c(CN2CCc3c(Cl)c4c(c(C)c3C2=O)OC(C)(C2CCNCC2)O4)c(=O)[nH]1` (stereo not shown) [Compound 28, 9-chloro-6-((4,6-dimethyl-2-oxo-1,2-dihydropyridin-3-yl)methyl)-2,4-dimethyl-2-(piperidin-4-yl)-7,8-dihydro-[1,3]dioxolo[4,5-g]isoquinolin-5(6H)-one], the IC50 against EZH2 was found to be 3.2 nM; at EZH1 it was 55 nM. The GI50 in data set [1] (setting [4]) stood at 14 nM.
For the compound `Cc1cc(C)c(CN2CCc3c(Cl)c4c(c(C)c3C2=O)OC(C)(C2CCN(C)CC2)O4)c(=O)[nH]1` (stereo not shown) [Compound 29, 9-chloro-6-((4,6-dimethyl-2-oxo-1,2-dihydropyridin-3-yl)methyl)-2,4-dimethyl-2-(1-methylpiperidin-4-yl)-7,8-dihydro-[1,3]dioxolo[4,5-g]isoquinolin-5(6H)-one], the results for the IC50 on EZH2 and against EZH1 were 5 nM and 136 nM, respectively. Also, the GI50 in data set [1] (setting [4]) turned out to be 51 nM.
In the same order, the values of `CC[C@@H](O)C(=O)N1CCC(C2(C)Oc3c(C)c4c(c(Cl)c3O2)CCN(Cc2c(C)cc(C)[nH]c2=O)C4=O)CC1` (stereo partly drawn) [Compound 30, 9-chloro-6-((4,6-dimethyl-2-oxo-1,2-dihydropyridin-3-yl)methyl)-2-(1-((R)-2-hydroxybutanoyl)piperidin-4-yl)-2,4-dimethyl-7,8-dihydro-[1,3]dioxolo[4,5-g]isoquinolin-5(6H)-one] are 3.4 nM, 190 nM and 307 nM.
For `Cc1cc(C)c(CN2CCc3c(Cl)c4c(c(C)c3C2=O)OC(C)(C2CCN(CC(F)(F)F)CC2)O4)c(=O)[nH]1` (stereo not shown) [Compound 31, 9-chloro-6-((4,6-dimethyl-2-oxo-1,2-dihydropyridin-3-yl)methyl)-2,4-dimethyl-2-(1-(2,2,2-trifluoroethyl)piperidin-4-yl)-7,8-dihydro-[1,3]dioxolo[4,5-g]isoquinolin-5(6H)-one] the same measures were 3.8 nM, 51 nM and 231 nM.
On to `C=Cc1c2c(c(C)c3c1OC(C)([C@H]1CC[C@H](N(C)C)CC1)O3)C(=O)N(Cc1c(C)cc(C)[nH]c1=O)CC2` (stereo partly drawn) [Compound 52, 6-((4,6-dimethyl-2-oxo-1,2-dihydropyridin-3-yl)methyl)-2-(trans-4-(dimethylamino)cyclohexyl)-2,4-dimethyl-9-vinyl-7,8-dihydro-[1,3]dioxolo[4,5-g]isoquinolin-5(6H)-one], for which the IC50 on EZH2 lay within 3.4 to 3.7 nM; against EZH1 it was 32 to 55 nM. The GI50 in data set [1] (setting [4]) lay in the range of 4.4 to 9.7 nM. In addition, in data set [2], the “Residual amount (%) of test compound … Mouse” value was 61%. The “Residual amount (%) of test compound … Human” value in data set [3] stood at 62%.
For `C#Cc1c2c(c(C)c3c1OC(C)([C@H]1CC[C@H](N(C)C)CC1)O3)C(=O)N(Cc1c(C)cc(C)[nH]c1=O)CC2` (stereo partly drawn) [Compound 53, 6-((4,6-dimethyl-2-oxo-1,2-dihydropyridin-3-yl)methyl)-2-(trans-4-(dimethylamino)cyclohexyl)-9-ethynyl-2,4-dimethyl-7,8-dihydro-[1,3]dioxolo[4,5-g]isoquinolin-5(6H)-one] the same measures were 4.5 to 9.1 nM, 27 to 139 nM, 5.1 to 14 nM, 85% and 67%.
`Cc1cc(C)c(CN2CCc3c(c(C)c4c(c3C3CC3)OC(C)([C@H]3CC[C@H](N(C)C)CC3)O4)C2=O)c(=O)[nH]1` (stereo partly drawn) [Compound 54, 9-cyclopropyl-6-((4,6-dimethyl-2-oxo-1,2-dihydropyridin-3-yl)methyl)-2-(trans-4-(dimethylamino)cyclohexyl)-2,4-dimethyl-7,8-dihydro-[1,3]dioxolo[4,5-g]isoquinolin-5(6H)-one]: the IC50 on EZH2 was 6.4 nM; against EZH1, 41 nM. In addition, the GI50 in data set [1] (setting [4]) was 19 nM.
Turning to `Cc1cc(C)c(CN2CCc3c(C#N)c4c(c(C)c3C2=O)OC(C)([C@H]2CC[C@H](N(C)C)CC2)O4)c(=O)[nH]1` (stereo partly drawn) [Compound 69, 6-((4,6-dimethyl-2-oxo-1,2-dihydropyridin-3-yl)methyl)-2-(trans-4-(dimethylamino)cyclohexyl)-2,4-dimethyl-5-oxo-5,6,7,8-tetrahydro-[1,3]dioxolo[4,5-g]isoquinolin-9-carbonitrile], the IC50 against EZH2 was 2.7 nM; against EZH1, 65 nM. The GI50 in data set [1] (setting [4]) was 10 nM.
